Assay results taken from patent US10294202B2, “Pyrrolidinones as herbicides” (FMC Corporation, priority 2013, dated 2019).

Experiments:
barnyardgrass [1] = assay: Test A pre-/postemergence herbicide test; assay type: in vivo, Echinochloa crus-galli
Procedure, shortened: (§1)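 Both application timings used compounds in a non-phytotoxic solvent plus surfactant. Pre-emergence: soil sprayed directly after seeding into loam/sand. Post-emergence: foliage of 2–10 cm seedlings (1–2 leaves) sprayed. Injury rated ~10 days later, 0–100.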

kochia = assay: Test A pre-/postemergence herbicide test; assay type: in vivo, Kochia scoparia
Procedure, shortened: as §1

ragweed = assay: Test A pre-/postemergence herbicide test; assay type: in vivo, Ambrosia elatior
Procedure, shortened: as §1

ryegrass, Italian = assay: Test A pre-/postemergence herbicide test; assay type: in vivo, Lolium multiflorum
Procedure, shortened: as §1

giant foxtail = assay: Test A pre-/postemergence herbicide test; assay type: in vivo, Setaria faberii
Procedure, shortened: as §1

pigweed = assay: Test A pre-/postemergence herbicide test; assay type: in vivo, Amaranthus retroflexus
Procedure, shortened: as §1

wheat = assay: Test A pre-/postemergence herbicide test; assay type: in vivo, Triticum aestivum; conditions: Postemergence
Procedure, shortened: as §1

corn = assay: Test A pre-/postemergence herbicide test; assay type: in vivo, Zea mays; conditions: Postemergence
Procedure, shortened: as §1

blackgrass = assay: Test A postemergence herbicide test; assay type: in vivo, Alopecurus myosuroides
Procedure, shortened: (§2)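 Visual injury rating, 0 (no effect) to 100 (complete control), versus untreated controls ~10 days after treatment. Postemergence spray applied at one- to two-leaf stage, plants 2–10 cm tall, potted in loam soil/sand. Greenhouse-held.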

galium = assay: Test A postemergence herbicide test; assay type: in vivo, Galium aparine
Procedure, shortened: as §2

rice = assay: Test B flooded paddy test; assay type: in vivo, Oryza sativa; conditions: 500 g ai/ha, Flood; scale of 0 to 100 where 0 is no effect and 100 is complete control
Procedure, shortened: (§3)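 In-water application to pots flooded 3 cm deep, plants at 2-leaf stage. Held in greenhouse 13–15 days at constant flood depth. Scored 0–100 by eye against controls.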

sedge, umbrella = assay: Test B flooded paddy test; assay type: in vivo, Cyperus difformis; conditions: 500 g ai/ha, Flood; scale of 0 to 100 where 0 is no effect and 100 is complete control
Procedure, shortened: as §3

ducksalad = assay: Test B flooded paddy test; assay type: in vivo, Heteranthera limosa; conditions: 500 g ai/ha, Flood; scale of 0 to 100 where 0 is no effect and 100 is complete control
Procedure, shortened: as §3

barnyardgrass [2] = assay: Test B flooded paddy test; assay type: in vivo, Echinochloa crus-galli; conditions: 500 g ai/ha, Flood; scale of 0 to 100 where 0 is no effect and 100 is complete control
Procedure, shortened: as §3

[3] = 125 g ai/ha, visual rating, 0 to 100 scale, 0 no effect, 100 complete control, approximately 10 days, preemergence
[4] = Postemergence, 125 g ai/ha, 0 to 100 scale, 0 is no effect, 100 is complete control
[5] = preemergence, 500 g ai/ha, 0 to 100 scale, 0 is no effect and 100 is complete control
[6] = 125 g ai/ha, 0 to 100 scale, 0 is no effect, 100 is complete control
[7] = Postemergence, 125 g ai/ha, visual rating on 0 to 100 scale (0 no effect, 100 complete control), approx. 10 days
[8] = Postemergence, 500 g ai/ha, 0 to 100 scale (0 no effect, 100 complete control)
[9] = Preemergence, 125 g ai/ha, 0 to 100 scale where 0 is no effect and 100 is complete control
[10] = Preemergence, 500 g ai/ha, visual rating on 0 to 100 scale (0 no effect, 100 complete control)
[11] = 125 g ai/ha, visual rating on 0 to 100 scale (0 no effect, 100 complete control), approx. 10 days
[12] = 500 g ai/ha, 0 to 100 scale (0 no effect, 100 complete control)
[13] = Postemergence, 125 g ai/ha, 0 to 100 scale, 0 no effect, 100 complete control
[14] = preemergence, 500 g ai/ha, 0 to 100 scale
[15] = 125 g ai/ha, 0 to 100 scale, 0 no effect, 100 complete control

## O=C1NCC(c2cccc(OC(F)F)c2)C1C(=O)Nc1ccccc1Br (stereo not drawn) [Compound 228]
Barnyardgrass [1]; [3]
  Plant response rating, Barnyardgrass: 50
Barnyardgrass [1]; [4]
  Plant response rating, Barnyardgrass: 60
Barnyardgrass [1]; Postemergence, 500 g ai/ha
  Barnyardgrass plant response rating (0 to 100 scale, 0 is no effect, 100 is complete control): 80
Barnyardgrass [1]; [5]
  Plant response rating, Barnyardgrass: 80
kochia; [3]
  Plant response rating, Kochia: 0
kochia; [4]
  Plant response rating, Kochia: 20
kochia; Postemergence, 500 g ai/ha
  Kochia plant response rating (0 to 100 scale, 0 is no effect, 100 is complete control): 30
kochia; [5]
  Plant response rating, Kochia: 20
ragweed; [3]
  Plant response rating, Ragweed: 0
ragweed; [4]
  Plant response rating, Ragweed: 0
ragweed; Postemergence, 500 g ai/ha
  Ragweed plant response rating (0 to 100 scale, 0 is no effect, 100 is complete control): 20
ragweed; [5]
  Plant response rating, Ragweed: 20
ryegrass, Italian; [3]
  Plant response rating, Ryegrass, Italian: 30
ryegrass, Italian; [4]
  Plant response rating, Ryegrass, Italian: 0
ryegrass, Italian; Postemergence, 500 g ai/ha
  Ryegrass, Italian plant response rating (0 to 100 scale, 0 is no effect, 100 is complete control): 20
ryegrass, Italian; [5]
  Plant response rating, Ryegrass, Italian: 40
Giant foxtail; [3]
  Plant response rating, Foxtail, Giant: 80
Giant foxtail; [4]
  Plant response rating, Foxtail, Giant: 70
Giant foxtail; Postemergence, 500 g ai/ha
  Foxtail, Giant plant response rating (0 to 100 scale, 0 is no effect, 100 is complete control): 90
Giant foxtail; [5]
  Plant response rating, Foxtail, Giant: 90
pigweed; [3]
  Plant response rating, Pigweed: 0
pigweed; [4]
  Plant response rating, Pigweed: 0
pigweed; Postemergence, 500 g ai/ha
  Pigweed plant response rating (0 to 100 scale, 0 is no effect, 100 is complete control): 0
pigweed; [5]
  Plant response rating, Pigweed: 0
wheat; [6]
  Plant response rating, Wheat: 0
wheat; 500 g ai/ha
  Wheat plant response rating (0 to 100 scale, 0 is no effect, 100 is complete control): 20
corn; [6]
  Plant response rating, Corn: 20
corn; 500 g ai/ha
  Corn plant response rating (0 to 100 scale, 0 is no effect, 100 is complete control): 30
blackgrass; [6]
  Plant response rating, Blackgrass: 20
blackgrass; 500 g ai/ha
  Blackgrass plant response rating (0 to 100 scale, 0 is no effect, 100 is complete control): 40
galium; [6]
  Plant response rating, Galium: 30
galium; 500 g ai/ha
  Galium plant response rating (0 to 100 scale, 0 is no effect, 100 is complete control): 40
rice
  Plant response rating, Rice: 0
sedge, umbrella
  Plant response rating, Sedge, Umbrella: 0
ducksalad
  Plant response rating, Ducksalad: 90
Barnyardgrass [2]
  Plant response rating, Barnyardgrass: 0

## O=C1NCC(c2ccc(Cl)s2)C1C(=O)Nc1ccccc1F (stereo not drawn) [Compound 292]
Barnyardgrass [1]; [7]
  Plant response rating, Barnyardgrass: 50
Barnyardgrass [1]; [8]
  Plant response rating, Barnyardgrass: 70
Barnyardgrass [1]; [9]
  Plant response rating, Barnyardgrass: 70
Barnyardgrass [1]; [5]
  Plant response rating, Barnyardgrass: 80
kochia; [7]
  Plant response rating, Kochia: 0
kochia; [8]
  Plant response rating, Kochia: 0
kochia; [9]
  Plant response rating, Kochia: 30
kochia; [5]
  Plant response rating, Kochia: 80
ragweed; [7]
  Plant response rating, Ragweed: 0
ragweed; [8]
  Plant response rating, Ragweed: 0
ragweed; [9]
  Plant response rating, Ragweed: 0
ragweed; [5]
  Plant response rating, Ragweed: 0
ryegrass, Italian; [7]
  Plant response rating, Ryegrass, Italian: 0
ryegrass, Italian; [8]
  Plant response rating, Ryegrass, Italian: 0
ryegrass, Italian; [9]
  Plant response rating, Ryegrass, Italian: 0
ryegrass, Italian; [10]
  Ryegrass, Italian plant response rating: 0
Giant foxtail; [7]
  Plant response rating, Foxtail, Giant: 50
Giant foxtail; [8]
  Plant response rating, Foxtail, Giant: 60
Giant foxtail; [9]
  Plant response rating, Foxtail, Giant: 50
Giant foxtail; [5]
  Plant response rating, Foxtail, Giant: 60
pigweed; [7]
  Plant response rating, Pigweed: 0
pigweed; [8]
  Plant response rating, Pigweed: 0
pigweed; [9]
  Plant response rating, Pigweed: 0
pigweed; [5]
  Plant response rating, Pigweed: 0
wheat; [11]
  Plant response rating, Wheat: 0
wheat; [12]
  Plant response rating, Wheat: 0
corn; [11]
  Plant response rating, Corn: 0
corn; [12]
  Plant response rating, Corn: 0
blackgrass; [11]
  Plant response rating, Blackgrass: 0
blackgrass; [12]
  Plant response rating, Blackgrass: 0
galium; [11]
  Plant response rating, Galium: 10
galium; [12]
  Plant response rating, Galium: 20
rice
  Plant response rating, Rice: 0
sedge, umbrella
  Plant response rating, Sedge, Umbrella: 0
ducksalad
  Plant response rating, Ducksalad: 100
Barnyardgrass [2]
  Plant response rating, Barnyardgrass: 50

## O=C1NCC(c2ccc(SC(F)(F)F)cc2)C1C(=O)Nc1ccccc1F (stereo not drawn) [Compound 321]
Barnyardgrass [1]; [7]
  Plant response rating, Barnyardgrass: 0
Barnyardgrass [1]; [8]
  Plant response rating, Barnyardgrass: 50
Barnyardgrass [1]; [9]
  Plant response rating, Barnyardgrass: 0
Barnyardgrass [1]; [10]
  Barnyardgrass plant response rating: 30
kochia; [7]
  Plant response rating, Kochia: 0
kochia; [8]
  Plant response rating, Kochia: 0
kochia; [9]
  Plant response rating, Kochia: 0
kochia; [10]
  Kochia plant response rating: 0
ragweed; [7]
  Plant response rating, Ragweed: 0
ragweed; [8]
  Plant response rating, Ragweed: 0
ragweed; [9]
  Plant response rating, Ragweed: 0
ragweed; [10]
  Ragweed plant response rating: 0
ryegrass, Italian; [7]
  Plant response rating, Ryegrass, Italian: 0
ryegrass, Italian; [8]
  Plant response rating, Ryegrass, Italian: 0
ryegrass, Italian; [9]
  Plant response rating, Ryegrass, Italian: 0
ryegrass, Italian; [10]
  Ryegrass, Italian plant response rating: 0
Giant foxtail; [7]
  Plant response rating, Foxtail, Giant: 0
Giant foxtail; [8]
  Plant response rating, Foxtail, Giant: 50
Giant foxtail; [9]
  Plant response rating, Foxtail, Giant: 0
Giant foxtail; [10]
  Foxtail, Giant plant response rating: 50
pigweed; [7]
  Plant response rating, Pigweed: 0
pigweed; [8]
  Plant response rating, Pigweed: 0
pigweed; [9]
  Plant response rating, Pigweed: 0
pigweed; [10]
  Pigweed plant response rating: 0
wheat; [11]
  Plant response rating, Wheat: 0
wheat; [12]
  Plant response rating, Wheat: 0
corn; [11]
  Plant response rating, Corn: 0
corn; [12]
  Plant response rating, Corn: 0
blackgrass; [11]
  Plant response rating, Blackgrass: 0
blackgrass; [12]
  Plant response rating, Blackgrass: 0
galium; [11]
  Plant response rating, Galium: 0
galium; [12]
  Plant response rating, Galium: 0
rice
  Plant response rating, Rice: 15
sedge, umbrella
  Plant response rating, Sedge, Umbrella: 0
ducksalad
  Plant response rating, Ducksalad: 40
Barnyardgrass [2]
  Plant response rating, Barnyardgrass: 20

## O=C1NCC(c2ccc(F)cc2)C1C(=O)Nc1ccccc1OC(F)F (racemic) [Compound 118]
Barnyardgrass [1]; [3]
  Plant response rating, Barnyardgrass: 50
Barnyardgrass [1]; [13]
  Plant response rating, Barnyardgrass: 0
Barnyardgrass [1]; [8]
  Plant response rating, Barnyardgrass: 60
Barnyardgrass [1]; preemergence, 500 g ai/ha, 0 to 100 scale (0 no effect, 100 complete control)
  Plant response rating, Barnyardgrass: 70
kochia; [3]
  Plant response rating, Kochia: 0
kochia; [13]
  Plant response rating, Kochia: 10
kochia; Postemergence, 500 g ai/ha
  Kochia plant response rating (0 to 100 scale, 0 is no effect, 100 is complete control): 50
kochia; [14]
  Plant response rating, Kochia: 0
ragweed; [3]
  Plant response rating, Ragweed: 0
ragweed; [13]
  Plant response rating, Ragweed: 0
ragweed; Postemergence, 500 g ai/ha
  Ragweed plant response rating (0 to 100 scale, 0 is no effect, 100 is complete control): 0
ragweed; [14]
  Plant response rating, Ragweed: 0
ryegrass, Italian; [3]
  Plant response rating, Ryegrass, Italian: 0
ryegrass, Italian; [13]
  Plant response rating, Ryegrass, Italian: 0
ryegrass, Italian; Postemergence, 500 g ai/ha
  Ryegrass, Italian plant response rating (0 to 100 scale, 0 is no effect, 100 is complete control): 0
ryegrass, Italian; [14]
  Plant response rating, Ryegrass, Italian: 0
Giant foxtail; [3]
  Plant response rating, Foxtail, Giant: 90
Giant foxtail; [13]
  Plant response rating, Foxtail, Giant: 50
Giant foxtail; Postemergence, 500 g ai/ha
  Foxtail, Giant plant response rating (0 to 100 scale, 0 is no effect, 100 is complete control): 80
Giant foxtail; [14]
  Plant response rating, Foxtail, Giant: 90
pigweed; [3]
  Plant response rating, Pigweed: 0
pigweed; [13]
  Plant response rating, Pigweed: 0
pigweed; Postemergence, 500 g ai/ha
  Pigweed plant response rating (0 to 100 scale, 0 is no effect, 100 is complete control): 0
pigweed; [14]
  Plant response rating, Pigweed: 0
wheat; [15]
  Plant response rating, Wheat: 0
wheat; 500 g ai/ha
  Wheat plant response rating (0 to 100 scale, 0 is no effect, 100 is complete control): 0
corn; [15]
  Plant response rating, Corn: 0
corn; [12]
  Plant response rating, Corn: 0
blackgrass; [15]
  Plant response rating, Blackgrass: 0
blackgrass; [12]
  Plant response rating, Blackgrass: 0
galium; [15]
  Plant response rating, Galium: 50
galium; 500 g ai/ha
  Galium plant response rating (0 to 100 scale, 0 is no effect, 100 is complete control): 60
rice
  Plant response rating, Rice: 0
sedge, umbrella
  Plant response rating, Sedge, Umbrella: 0
ducksalad
  Plant response rating, Ducksalad: 100
Barnyardgrass [2]
  Plant response rating, Barnyardgrass: 20
